Source: patent publication US10688105B2, “Method of treating refractory rheumatoid arthritis associated with p53 mutation” (priority 2017, dated 2020)

Legend:
in vitro = settings: human
Description: (§5) All test compounds were dissolved in DMSO at final concentrations of 50 mmol/L and stored at −20° C. before use. Cytotoxicity was assessed using the 3-(4, 5-dimethylthiazol-2-yl)-2, 5-diphenyltetrazolium bromide (MTT) (5.0 mg/ml) assay. Briefly, 4×10^3 RAFLS cells overexpressed with P-gp were seeded per well in 96-well plates before drug treatment. […] Cells without drug treatment were used as control. Subsequently, MTT (10 μL) was added to each well and incubated at 37° C. for 4 hours followed by the addition of 100 μL solubilization buffer (10% SDS in 0.01 mol/L HCl) and overnight incubation. A570 nm was determined from each well on the next day. The percentage of cell viability was calculated using the following formula: Cell viability (%)=Atreated/Acontrol×100. Data were obtained from triplication independent experiments.

[1] = MTT cytotoxicity assay, RAFLS; format: cell-based; settings: human
Description: Data were obtained from triplication independent experiments.

[2] = tested on: RAFLS p-gp over expression; test: MTT cytotoxicity assay, RAFLS overexpressed with P-gp; settings: RAFLS p-gp over expression vs RAFLS
Description: as §5

[3] = tested on: adjuvant-induced arthritis (AIA) rat model; test: Adjuvant-induced arthritis (AIA) rat model; settings: AIA rats; for microCT of hind joints: swollen joints and cartilage destruction: left hind paw
RAFLS [4] = test: Annexin V flow cytometry cell death in RAFLS; format: cell-based; settings: 24 h; for celastrol-mediated autophagic cell death with inhibitor: 2 μM celastrol with 5 mM 3-MA or 5 μM BAPTA/AM
Description: (§1) Annexin V flow cytometry analysis was applied. Cell death and viability are measured using an Annexin V staining kit (BD Biosciences, San Jose, Calif., USA). Briefly, RAFLS are treated with 0-2 μM celastrol for 24 h. Cells are then harvested and analysed by multiparametric flow cytometry using FITC-Annexin V and Propidium iodide staining (BD Biosciences, San Jose, Calif., USA) according to the manufacturer's instructions. Flow cytometry is then carried out using a FACSCalibur flow cytometer (BD Biosciences, San Jose, Calif., USA). Data acquisition and analysis is performed with CellQuest (BD Biosciences, San Jose, Calif., USA). Data are obtained from three independent experiments.
as §1, with “performed.” for “applied.”, “1 or 2” for “0-2”, “celastrol in the presence or absence of autophagic inhibitor, 3-MA or calcium chelator, BAPTA/AM (BM)” for “celastrol”

RAFLS [5] = test: Endogenous LC3-II puncta (autophagy) in RAFLS; format: cell-based, human; settings: 24 h
Description: RAFLS were treated with DMSO as a control group or celastrol at a concentration of 0.25, 0.5, 1 or 2 μM for 24 h.
(§2) Data from the bar chart represented the mean values±S.D. of three independent experiments; error bars, S.D. ***, P<0.001.
(§3) In order to determine endogenous expression of LC3-II, RASFs or RAFLS treated with indicated time and concentrations of celastrol (Cel) were fixed and visualised by fluorescence microscopy after staining with an LC3-II antibody followed by TRITC-conjugated anti-mouse secondary antibody.
To determine the endogenous expression of LC3-II, RAFLS were treated with indicated concentrations of celastrol in the presence or absence of BAPTA/AM (BM) for 24 h. The cells were then fixed and visualised by fluorescence microscopy after staining with an LC3-II antibody followed by TRITC-conjugated anti-mouse secondary antibody.

RASFs [6] = test: LC3 conversion Western blot in RASFs; format: cell-based, human; settings: 2 μM celastrol, 10 μM BAPTA/AM
Description: In a detection of autophagic marker protein LC3 conversion, after celastrol treatments with or without the calcium chelator, BAPTA/AM (BM), RASFs were harvested and lysed in RIPA buffer (Cell Signaling Technologies Inc. (Beverly, Mass.). The cell lysates were then resolved by SDS-PAGE. After electrophoresis, the proteins from SDS-PAGE were transferred to nitrocellulose membrane which was then blocked with 5% non-fat dried milk for 60 minutes. The membrane was then incubated with LC3 primary antibodies (1:1000) in TBST overnight at 4° C. After that, the membrane was further incubated with HRP-conjugated secondary antibodies for 60 minutes. Finally, protein bands were visualized by using the ECL Western Blotting Detection Reagents (Invitrogen, Paisley, Scotland, UK).

RASFs [7] = test: Cytosolic Ca2+ dynamic, FLIPR Calcium 6 Assay Kit in RASFs; format: cell-based, human; settings: for celastrol-induced calcium dynamic change under co-/pre-treatment: 1 μM celastrol with 5 μM Compound C or 1 μM thapsigargin; for calcium dynamic change: 1 μM, compound alone
Description: Intracellular cytosolic Ca^2+ dynamic was measured using the FLIPR Calcium 6 Assay Kit (Molecular Devices) according to the manufacturer's instructions. In brief, RASFs were plated at a density of 10000 cells per well in black wall/clear bottom 96-multiwell plates from Costar (Tewksbury, Mass., USA) and cultured for 24 h before treatment. After that, calcium 6 reagent was added directly to cells, and cells were incubated for an additional 2 h at 37° C. and 5% CO2. Indicated concentrations of celastrol or thapsigargin were then added to the wells and immediately subjected to data acquisition on the SpectraMax Paradigm Multi-Mode Microplate Reader (Molecular Devices) at room temperature using a 1-s reading interval throughout the experiments.

RAFLS p53 WT = test: MTT cytotoxicity assay, RAFLS Ctrl p53 WT; format: cell-based, human
Description: (§4) Cytotoxicity Assays were performed. […] Data were obtained from triplication independent experiments.

P-gp ATPase = target: T1, P-gp ATPase (Homo sapiens, UniProt P08183); test: Pgp-Glo assay of P-gp ATPase activity; format: biochemical; settings: celastrol 0.5, 1, 2 μM with 200 μM verapamil and ATP, 1 hour, 37° C.
T1 construct: purchased Promega, Madison, Wis
T1 sequence (P08183 whole entry): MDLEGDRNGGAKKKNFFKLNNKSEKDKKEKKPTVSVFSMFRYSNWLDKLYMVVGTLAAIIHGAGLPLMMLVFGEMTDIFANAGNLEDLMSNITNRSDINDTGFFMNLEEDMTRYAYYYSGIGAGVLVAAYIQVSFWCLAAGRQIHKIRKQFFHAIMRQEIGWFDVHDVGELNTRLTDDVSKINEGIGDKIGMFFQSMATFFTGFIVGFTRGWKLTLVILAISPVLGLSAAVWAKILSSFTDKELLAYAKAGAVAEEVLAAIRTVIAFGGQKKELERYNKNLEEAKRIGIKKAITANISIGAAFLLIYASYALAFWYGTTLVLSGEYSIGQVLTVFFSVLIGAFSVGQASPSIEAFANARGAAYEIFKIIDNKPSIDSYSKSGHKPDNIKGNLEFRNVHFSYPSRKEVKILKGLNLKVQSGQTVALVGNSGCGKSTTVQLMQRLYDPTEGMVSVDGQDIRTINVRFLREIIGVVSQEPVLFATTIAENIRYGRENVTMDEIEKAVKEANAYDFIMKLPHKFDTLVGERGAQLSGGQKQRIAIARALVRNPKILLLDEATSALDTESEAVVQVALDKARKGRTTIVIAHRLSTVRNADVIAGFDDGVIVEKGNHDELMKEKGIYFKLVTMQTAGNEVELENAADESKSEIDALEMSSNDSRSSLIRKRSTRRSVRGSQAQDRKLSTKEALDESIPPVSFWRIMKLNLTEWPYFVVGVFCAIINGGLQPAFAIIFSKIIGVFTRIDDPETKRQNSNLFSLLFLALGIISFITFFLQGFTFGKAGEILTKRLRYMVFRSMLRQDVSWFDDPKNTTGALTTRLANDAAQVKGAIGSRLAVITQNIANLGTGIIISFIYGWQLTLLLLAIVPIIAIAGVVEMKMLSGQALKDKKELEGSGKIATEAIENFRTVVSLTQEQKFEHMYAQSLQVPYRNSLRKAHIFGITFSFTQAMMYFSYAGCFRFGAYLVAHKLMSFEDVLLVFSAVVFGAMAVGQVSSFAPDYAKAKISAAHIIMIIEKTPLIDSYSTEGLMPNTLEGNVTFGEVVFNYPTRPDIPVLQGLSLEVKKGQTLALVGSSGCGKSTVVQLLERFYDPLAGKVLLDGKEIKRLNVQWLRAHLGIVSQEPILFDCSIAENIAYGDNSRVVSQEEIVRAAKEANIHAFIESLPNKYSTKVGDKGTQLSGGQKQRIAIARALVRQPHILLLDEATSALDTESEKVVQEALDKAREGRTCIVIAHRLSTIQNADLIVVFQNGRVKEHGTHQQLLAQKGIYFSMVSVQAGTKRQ
Description: The luminescence was then measured by P-gp Glo™ Assay System. Change in luminescence (RLU) represented the activity of P-gp, whereas the activity shown in the control group indicated the basal P-gp ATPase activity.
The luminescence of the sample reflects the ATP level in the sample, which is negatively correlated with the activity of P-gp ATPase and was recorded using the SpectraMax Paradigm Multi-Mode Microplate Reader (Molecular Devices). DMSO-treated activities are expressed as the percentage of basal activity. By comparing basal activity to test compound-treated activities, the compounds can be ranked as stimulating, inhibiting, or having no effect on basal P-gp ATPase activity.

RAFLS p53 R213* = test: MTT cytotoxicity assay, RAFLS transfected with p53 mutant R213*; format: cell-based, human
Description: as §4

RAFLS p53 N239S = test: MTT cytotoxicity assay, RAFLS transfected with p53 mutant N239S; format: cell-based, human
Description: as §4

[8] = tested on: P-gp-over-expressing RAFLS; test: Annexin V flow cytometry, celastrol with methotrexate in RAFLS; format: cell-based, human; settings: celastrol 0.1-0.2 μM with 450 μM MTX, 24 h
Description: Celastrol-induced cell death was measured by flow cytometry analysis after annexin V staining.
as §1, with “performed.” for “applied.”, “Briefly, RAFLS are treated with 0-2 μM celastrol for 24 h.” left out

RASFs [9] = test: Endogenous LC3-II puncta (autophagy) in RASFs; format: cell-based, human; settings: 1 μM, 10-240 min
Description: RASFs were treated with DMSO as a control group or 1 μM celastrol for 10, 30, 60 or 240 min. The cells were then fixed and visualized for endogenous LC3-II expression by fluorescence microscopy using LC3-II antibody plus TRITC-conjugated anti-mouse secondary antibody.
as §2, §3

P-gp = test: Rho123 exclusion assay in P-gp overexpressing RAFLS; format: cell-based, human; settings: relatively low doses of celastrol
Description: At the end of the incubation, the accumulation of Rho123 was stopped by washing the cells five times with ice-cold PBS. After cell centrifugation, cell pellets were resuspended in 400 μL PBS. […] All data acquisition and analyses were performed with CellQuest (BD Biosciences, San Jose, Calif., USA) in triplicate in three independent experiments, and the results were shown as the mean of fluorescence intensity.

RAFLS [10] = test: Cytosolic calcium level by Fluo-3 flow cytometry in RAFLS; format: cell-based, human; settings: 1 μM 0-24 h, 0.1-2 μM 4 h
Description: Flow cytometry analysis was performed to determine the cytosolic calcium level. Intracellular free calcium was measured by a fluorescent dye, Fluo-3. Briefly, RAFLS were washed twice with DMEM media after Celastrol treatment (1 μM) for 4 h. Then cell suspensions were incubated with 5 μM Fluo-3 at 37° C. for 30 min. Then the cells were washed twice with HBSS. After re-suspended cell samples were subjected to FACS analysis. At least 10,000 events were analyzed.

[11] = RAFLS cells overexpressing P-gp
[12] = Homo sapiens, RA-FLS, 72 h, read-out: mean IC50
[13] = celastrol 1 and 2 mg/kg i.p., 36 days, vs vehicle-treated

C[C@@H]1C[C@H]2[C@@H]3CCC4=CC(=O)C=C[C@]4(C)[C@@]3(F)[C@@H](O)C[C@]2(C)[C@@]1(O)C(=O)CO [Dexamethasone, dexamethasone]
IC50 at 72 h (in vitro; [11]): > 2000 µM | IC50 at 72 h ([1]; RAFLS cells): 600 µM

COc1cc2c(c(OC)c1OC)-c1ccc(OC)c(=O)cc1[C@@H](NC(C)=O)CC2 [Colchicine, colchicine]
Resistant Factor [2]: 4.07 | IC50 at 72 h (in vitro): 46 µM | IC50 at 72 h [1]: 11.3 µM

CC(=O)OCOC(=O)CN(CC(=O)OCOC(C)=O)c1ccccc1OCCOc1ccccc1N(CC(=O)OCOC(C)=O)CC(=O)OCOC(C)=O [BAPTA/AM, reference compound]
anti-arthritic effect of celastrol with calcium chelator ([3]; celastrol 1 mg/kg + BAPTA/AM 3.5 mg/kg): retarded the anti-arthritic effect of celastrol | celastrol-mediated autophagic cell death with inhibitor (RAFLS [4]): completely abolished | celastrol-induced endogenous LC3-II puncta formation with co-treatment (RAFLS [5]; 1 μM celastrol, 10 μM BAPTA/AM): dramatically suppressed | LC3-II conversion with co-treatment (RASFs [6]): inhibited LC3-II conversion

C/C=C(/C)C(=O)O[C@H]1C(C)=C2[C@H]([C@@H]1OC(=O)CCCCCCC)[C@@](C)(OC(C)=O)C[C@H](OC(=O)CCC)[C@@]1(O)[C@H]2OC(=O)[C@@]1(C)O [thapsigargin]
celastrol-induced calcium dynamic change under co-/pre-treatment (RASFs [7]): extremely low response in calcium mobilization upon celastrol treatment | calcium dynamic change (RASFs [7]): significantly induced the calcium dynamic change

CN(Cc1cnc2nc(N)nc(N)c2n1)c1ccc(C(=O)N[C@@H](CCC(=O)O)C(=O)O)cc1 [Methotrexate, methotrexate]
Resistant Factor [2]: 3.83 | IC50 at 72 h (in vitro; [11]): 838 µM | erythrocyte sedimentation rate (ESR) [3]: down-regulated | microCT of hind joints: swollen joints and cartilage destruction [3]: markedly improved | IC50 at 72 h ([1]; RAFLS cells): 219 µM

Cn1cnc(N)c2ncnc1-2 [3-MA, 3-methyladenine]
celastrol-mediated autophagic cell death with inhibitor (RAFLS [4]): completely abolished

c1cc(-c2cnn3cc(-c4ccc(OCCN5CCCCC5)cc4)cnc23)ccn1 [AMPK inhibitor]
celastrol-induced calcium dynamic change under co-/pre-treatment (RASFs [7]): no inhibitory effect

C[C@]12C=CC(=O)C=C1CC[C@@H]1[C@@H]2[C@@H](O)C[C@@]2(C)[C@H]1CC[C@]2(O)C(=O)CO [Prednisolone, prednisolone]
IC50 at 72 h (in vitro; [11]): 216 µM | IC50 at 72 h ([1]; RAFLS cells): 123 µM

CC1=C(O)C(=O)C=C2C1=CC=C1[C@@]2(C)CC[C@@]2(C)[C@@H]3C[C@](C)(C(=O)O)CC[C@]3(C)CC[C@]12C [Celastrol, celastrol]
Resistant Factor [2]: 1.12 | IC50 (RAFLS p53 WT; [12]): 0.996 µM | Resistant factor, RF (RAFLS p53 WT; RAFLS Ctrl p53 WT (reference)): RF: 1 | verapamil-activated P-gp activity (P-gp ATPase): directly suppresses the activated form of P-gp in dose-dependently manner | IC50 (RAFLS p53 R213*; [12]): 0.722 µM | Resistant factor, RF (RAFLS p53 R213*; RAFLS p53 R213* vs p53 WT): RF: 0.72 | IC50 at 72 h (in vitro): 1.45 µM | calcium dynamic change (RASFs [7]): stimulated relative weak calcium dynamic | IC50 (RAFLS p53 N239S; [12]): 1.01 µM | Resistant factor, RF (RAFLS p53 N239S; RAFLS p53 N239S vs p53 WT): RF: 1.01 | MTX-mediated cell death (sensitization) [8]: potentiating the toxicity of MTX | autophagy induction, endogenous LC3-II puncta (RASFs [9]): induced autophagy in time-dependent manner | erythrocyte sedimentation rate (ESR) [3]: down-regulated | body weight or organ weight ([3]; 36 days): without impairment | arthritic scores [3, 13]: significantly reduced | hind paw volume [3, 13]: significantly reduced | microCT of hind joints: swollen joints and cartilage destruction [3]: markedly improved | cell death (cytotoxicity), annexin V (RAFLS [4]; 0.25-2 μM): dose-dependent cytotoxicity | IC50 at 72 h [1]: 1.3 µM | autophagy induction, endogenous LC3-II puncta (RAFLS [5]; 0.25-2 μM): dose-dependent autophagy induction | Rho123 accumulation in P-gp overexpressing RAFLS (P-gp): gradually increased Rho123 accumulation in a dose-dependent manner | calcium mobilization (Fluo-3) (RAFLS [10]): time and dose-dependently disturbs calcium homeostasis
